Data: ChEMBL document CHEMBL3232968, “Potent airway smooth muscle relaxant effect of cynatratoside B, a steroidal glycoside isolated from Cynanchum stauntonii” (J Nat Prod, 2014)

Columns and labels:
[1] = tested on: Trachea; assay: Inhibition of carbachol-induced contraction of Sprague-Dawley rat tracheal rings after 30 mins by isometric tension technique; assay type: functional, tissue-based; conditions: 0.5 h
[2] = tested on: Trachea; assay: Inhibition of acetylcholine-induced contraction of Sprague-Dawley rat tracheal rings after 30 mins by isometric tension technique; assay type: functional, tissue-based

EC50 ([2]; 0.5 h)	Structure (SMILES)	EC50 [1]	inhibition [2]
850 nM	CO[C@@H]1C[C@H](O[C@H]2[C@@H](O)C[C@H](O[C@@H]3[C@@H](C)O[C@@H](O[C@H]4CC[C@@]5(C)C(=CC[C@@H]6C(=O)O[C@@H]7CO[C@]8(C)OC=C(CC[C@@H]65)[C@H]78)C4)C[C@H]3OC)O[C@@H]2C)O[C@@H](C)[C@@H]1O	480 nM	Dose-dependent effect
–	C[C@@H]1O[C@@H](O[C@H]2[C@H](O[C@H]3CC[C@@]4(C)[C@@H](CC[C@]5(C)[C@@H]4CC=C4[C@@H]6CC(C)(C)CC[C@]6(C(=O)O)CC[C@]45C)[C@]3(C)CO)OC[C@H](O)[C@@H]2O)[C@H](O)[C@H](O)[C@H]1O [ALPHA-HEDERIN]	1000 nM	–
–	CC(C)NC[C@H](O)c1ccc(O)c(O)c1 [LEVISOPRENALINE]	130 nM	–
